These results are taken from PubChem BioAssay AID1259407 (Chemical Carcinogenesis Research Information System (CCRIS), 2018).

Calls of active or inactive are those of the source. No rule for the calls is given here.

The data set deals with CCRIS mutagenicity, Ames/micronucleus/aberration tests. The data set is described as follows: CCRIS mutagenicity studies.
The mark [1] stands for this setting: Test System: AMES SALMONELLA TYPHIMURIUM, Strain/Indicator: TA98, Metabolic Activation: NONE, Method: STANDARD PLATE.
Where [2] appears, read: Test System: AMES SALMONELLA TYPHIMURIUM, Strain/Indicator: TA98, Metabolic Activation: RAT, LIVER, S-9, AROCLOR 1254, Method: STANDARD PLATE.
Setting [3] is: Test System: AMES SALMONELLA TYPHIMURIUM, Strain/Indicator: TA100, Metabolic Activation: NONE, Method: STANDARD PLATE.
Setting [4] is: Test System: AMES SALMONELLA TYPHIMURIUM, Strain/Indicator: TA100, Metabolic Activation: RAT, LIVER, S-9, AROCLOR 1254, Method: STANDARD PLATE.
Setting [5] is: Test System: AMES SALMONELLA TYPHIMURIUM, Strain/Indicator: TA1537, Metabolic Activation: RAT, LIVER, S-9, AROCLOR 1254, Method: STANDARD PLATE.
The mark [6] stands for this setting: Test System: AMES SALMONELLA TYPHIMURIUM, Strain/Indicator: TA1538, Metabolic Activation: RAT, LIVER, S-9, AROCLOR 1254, Method: STANDARD PLATE.
Where [7] appears, read: Test System: AMES SALMONELLA TYPHIMURIUM, Strain/Indicator: TA97, Metabolic Activation: NONE, Method: STANDARD PLATE.

Turning to `CC(C)(C#N)C(C)(C)C#N`, the mutagenic call is “inactive; negative” (Test System: AMES SALMONELLA TYPHIMURIUM, Strain/Indicator: TA97, Metabolic Activation: HAMSTER, LIVER, S-9, AROCLOR 1254 (10 OR 30%), Method: PREINCUBATION); “inactive; negative” (Test System: AMES SALMONELLA TYPHIMURIUM, Strain/Indicator: TA97, Metabolic Activation: NONE, Method: PREINCUBATION); “inactive; negative” (Test System: AMES SALMONELLA TYPHIMURIUM, Strain/Indicator: TA97, Metabolic Activation: RAT, LIVER, S-9, AROCLOR 1254 (10 OR 30%), Method: PREINCUBATION); “inactive; negative” (Test System: AMES SALMONELLA TYPHIMURIUM, Strain/Indicator: TA97, Method: PREINCUBATION); “inactive; negative” (Test System: AMES SALMONELLA TYPHIMURIUM, Strain/Indicator: TA98, Metabolic Activation: HAMSTER, LIVER, S-9, AROCLOR 1254 (10 OR 30%), Method: PREINCUBATION); “inactive; negative” (Test System: AMES SALMONELLA TYPHIMURIUM, Strain/Indicator: TA98, Metabolic Activation: HAMSTER, LIVER, S-9, AROCLOR 1254, Method: STANDARD PLATE). In addition, the mutagenic call is “inactive; negative” (Test System: AMES SALMONELLA TYPHIMURIUM, Strain/Indicator: TA98, Metabolic Activation: NONE, Method: PREINCUBATION); “inactive; negative” under setting [1]; “inactive; negative” (Test System: AMES SALMONELLA TYPHIMURIUM, Strain/Indicator: TA98, Metabolic Activation: RAT, LIVER, S-9, AROCLOR 1254 (10 OR 30%), Method: PREINCUBATION); “inactive; negative” under setting [2]; “inactive; negative” (Test System: AMES SALMONELLA TYPHIMURIUM, Strain/Indicator: TA98, Method: PREINCUBATION); “inactive; negative” (Test System: AMES SALMONELLA TYPHIMURIUM, Strain/Indicator: TA100, Metabolic Activation: HAMSTER, LIVER, S-9, AROCLOR 1254 (10 OR 30%), Method: PREINCUBATION). Besides, the mutagenic call was “inactive; negative” (Test System: AMES SALMONELLA TYPHIMURIUM, Strain/Indicator: TA100, Metabolic Activation: HAMSTER, LIVER, S-9, AROCLOR 1254, Method: STANDARD PLATE); “inactive; negative” (Test System: AMES SALMONELLA TYPHIMURIUM, Strain/Indicator: TA100, Metabolic Activation: NONE, Method: PREINCUBATION); “inactive; negative” under setting [3]; “inactive; negative” (Test System: AMES SALMONELLA TYPHIMURIUM, Strain/Indicator: TA100, Metabolic Activation: RAT, LIVER, S-9, AROCLOR 1254 (10 OR 30%), Method: PREINCUBATION); “inactive; negative” under setting [4]; “inactive; negative” (Test System: AMES SALMONELLA TYPHIMURIUM, Strain/Indicator: TA100, Method: PREINCUBATION). In addition, the mutagenic call by setting is: (Test System: AMES SALMONELLA TYPHIMURIUM, Strain/Indicator: TA102, Metabolic Activation: NONE, Method: PREINCUBATION) “inactive; negative”; (Test System: AMES SALMONELLA TYPHIMURIUM, Strain/Indicator: TA102, Method: PREINCUBATION) “inactive; negative”; (Test System: AMES SALMONELLA TYPHIMURIUM, Strain/Indicator: TA1535, Metabolic Activation: HAMSTER, LIVER, S-9, AROCLOR 1254 (10 OR 30%), Method: PREINCUBATION) “inactive; negative”; (Test System: AMES SALMONELLA TYPHIMURIUM, Strain/Indicator: TA1535, Metabolic Activation: HAMSTER, LIVER, S-9, AROCLOR 1254, Method: STANDARD PLATE) “inactive; negative”; (Test System: AMES SALMONELLA TYPHIMURIUM, Strain/Indicator: TA1535, Metabolic Activation: NONE, Method: PREINCUBATION) “inactive; negative”; (Test System: AMES SALMONELLA TYPHIMURIUM, Strain/Indicator: TA1535, Metabolic Activation: NONE, Method: STANDARD PLATE) “inactive; negative”. Moreover, the mutagenic call reads like this: (Test System: AMES SALMONELLA TYPHIMURIUM, Strain/Indicator: TA1535, Metabolic Activation: RAT, LIVER, S-9, AROCLOR 1254 (10 OR 30%), Method: PREINCUBATION) “inactive; negative”; (Test System: AMES SALMONELLA TYPHIMURIUM, Strain/Indicator: TA1535, Metabolic Activation: RAT, LIVER, S-9, AROCLOR 1254, Method: STANDARD PLATE) “inactive; negative”; (Test System: AMES SALMONELLA TYPHIMURIUM, Strain/Indicator: TA1537, Metabolic Activation: NONE, Method: STANDARD PLATE) “inactive; negative”; under setting [5], “inactive; negative”; (Test System: AMES SALMONELLA TYPHIMURIUM, Strain/Indicator: TA1538, Metabolic Activation: HAMSTER, LIVER, S-9, AROCLOR 1254, Method: STANDARD PLATE) “inactive; negative”; (Test System: AMES SALMONELLA TYPHIMURIUM, Strain/Indicator: TA1538, Metabolic Activation: NONE, Method: STANDARD PLATE) “inactive; negative”. Moreover, the mutagenic call under setting [6] is “inactive; negative”; the mutagenic call (Test System: MOUSE LYMPHOMA, Strain/Indicator: L5178Y (TK+/TK-), Metabolic Activation: NONE, Method: SUSPENSION/PLATE) was “inactive; negative. reevaluation of results: negative”; the mutagenic call (Test System: MOUSE LYMPHOMA, Strain/Indicator: L5178Y (TK+/TK-), Metabolic Activation: RAT, LIVER, S-9, AROCLOR 1254, Method: SUSPENSION/PLATE) was “inactive; negative. reevaluation of results: negative”.
As for `ClCC1C(CCl)[C@@]2(Cl)C(Cl)=C(Cl)[C@]1(Cl)C2(Cl)Cl` (some centres undefined), the mutagenic call by setting is: under setting [7], “inactive; negative”; (Test System: AMES SALMONELLA TYPHIMURIUM, Strain/Indicator: TA97, Metabolic Activation: RAT, LIVER, S-9, AROCLOR 1254, Method: STANDARD PLATE) “inactive; negative”; under setting [1], “inactive; negative”; under setting [2], “inactive; negative”; under setting [3], “inactive; negative”; under setting [4], “inactive; negative”. Moreover, the mutagenic call reads like this: (Test System: AMES SALMONELLA TYPHIMURIUM, Strain/Indicator: TA102, Metabolic Activation: NONE, Method: STANDARD PLATE) “inactive; negative”; (Test System: AMES SALMONELLA TYPHIMURIUM, Strain/Indicator: TA102, Metabolic Activation: RAT, LIVER, S-9, AROCLOR 1254, Method: STANDARD PLATE) “inactive; negative”.
Turning to `Nc1nc2c(ccc3ncccc32)s1`, the mutagenic call under setting [6] was “active; positive”.
For `CCCCNC(=O)NS(=O)(=O)c1ccc(C)cc1`, the mutagenic call runs as follows: (End Point: IN VITRO CHROMOSOMAL ABERRATIONS, Test System: CHO-LB CELLS, Metabolic Activation: NONE) “inactive; negative”; (End Point: IN VITRO CHROMOSOMAL ABERRATIONS, Test System: CHO-LB CELLS, Metabolic Activation: RAT, LIVER, S-9, AROCLOR 1254) “inactive; negative”.
Regarding `c1cc2ccc3ccc4ccc5ccc6ccc1c1c2c3c4c5c61`, the mutagenic call by setting is: under setting [7], “inactive; negative”; (Test System: AMES SALMONELLA TYPHIMURIUM, Strain/Indicator: TA97, Metabolic Activation: RAT, LIVER, S-9, PCB, Method: STANDARD PLATE) “active; positive”; under setting [1], “inactive; negative”; (Test System: AMES SALMONELLA TYPHIMURIUM, Strain/Indicator: TA98, Metabolic Activation: RAT, LIVER, S-9, AROCLOR 1254, Method: FLUCTUATION) “active; positive”; under setting [2], “active; positive”; (Test System: AMES SALMONELLA TYPHIMURIUM, Strain/Indicator: TA98, Metabolic Activation: RAT, LIVER, S-9, PCB, Method: STANDARD PLATE) “active; positive”. Further, the mutagenic call reads like this: under setting [3], “inactive; negative”; (Test System: AMES SALMONELLA TYPHIMURIUM, Strain/Indicator: TA100, Metabolic Activation: RAT, LIVER, S-9, PCB, Method: STANDARD PLATE) “inactive; negative”; under setting [5], “active; positive”; under setting [6], “active; positive”.
